Data as given in doi:10.1101/2021.02.21.432137v1 (biorxiv, 2021).

Assays:
Settings in all cases: binder
LRRK2 (G2019S) = LRRK2 (G2019S) (Homo sapiens, UniProt Q5S007, G2019S)
MAP3K15 = target: T1, MAP3K15 (Homo sapiens, UniProt Q6ZN16)
T1 sequence (Q6ZN16 1-1313): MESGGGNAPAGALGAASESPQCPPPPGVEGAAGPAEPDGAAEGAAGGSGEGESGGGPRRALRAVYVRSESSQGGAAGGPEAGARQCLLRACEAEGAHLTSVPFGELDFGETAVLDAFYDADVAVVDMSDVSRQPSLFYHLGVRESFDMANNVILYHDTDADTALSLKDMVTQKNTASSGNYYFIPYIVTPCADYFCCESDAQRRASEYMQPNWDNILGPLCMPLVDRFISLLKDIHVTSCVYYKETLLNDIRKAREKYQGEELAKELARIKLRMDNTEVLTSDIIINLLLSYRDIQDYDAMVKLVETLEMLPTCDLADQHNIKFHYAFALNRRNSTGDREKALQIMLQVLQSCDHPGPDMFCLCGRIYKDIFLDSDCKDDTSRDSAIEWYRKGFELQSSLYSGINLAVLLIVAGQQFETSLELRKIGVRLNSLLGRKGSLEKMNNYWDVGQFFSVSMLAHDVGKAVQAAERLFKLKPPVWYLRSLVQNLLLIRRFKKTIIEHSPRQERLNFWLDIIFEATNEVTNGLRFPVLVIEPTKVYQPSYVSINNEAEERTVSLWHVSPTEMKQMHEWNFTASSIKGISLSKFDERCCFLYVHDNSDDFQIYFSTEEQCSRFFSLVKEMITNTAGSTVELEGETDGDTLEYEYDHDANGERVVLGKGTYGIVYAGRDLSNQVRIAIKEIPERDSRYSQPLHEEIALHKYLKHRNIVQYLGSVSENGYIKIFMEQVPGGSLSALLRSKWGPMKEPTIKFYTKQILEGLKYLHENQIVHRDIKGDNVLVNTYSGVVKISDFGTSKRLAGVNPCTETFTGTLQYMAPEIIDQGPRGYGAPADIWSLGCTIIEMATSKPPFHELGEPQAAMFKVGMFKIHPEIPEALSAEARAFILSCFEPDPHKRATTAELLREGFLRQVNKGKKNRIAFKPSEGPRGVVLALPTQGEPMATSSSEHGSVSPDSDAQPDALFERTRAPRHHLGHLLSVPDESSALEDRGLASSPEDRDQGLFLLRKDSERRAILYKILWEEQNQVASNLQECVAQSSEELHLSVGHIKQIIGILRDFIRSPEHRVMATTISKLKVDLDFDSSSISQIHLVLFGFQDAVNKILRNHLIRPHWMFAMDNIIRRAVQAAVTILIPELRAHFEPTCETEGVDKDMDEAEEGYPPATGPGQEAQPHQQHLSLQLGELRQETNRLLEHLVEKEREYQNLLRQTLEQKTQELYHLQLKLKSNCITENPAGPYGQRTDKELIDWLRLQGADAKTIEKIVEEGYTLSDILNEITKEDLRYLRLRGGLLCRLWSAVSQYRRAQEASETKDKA

NUAK2 = target: T2, NUAK2 (Homo sapiens, UniProt Q9H093)
T2 sequence (Q9H093 1-628): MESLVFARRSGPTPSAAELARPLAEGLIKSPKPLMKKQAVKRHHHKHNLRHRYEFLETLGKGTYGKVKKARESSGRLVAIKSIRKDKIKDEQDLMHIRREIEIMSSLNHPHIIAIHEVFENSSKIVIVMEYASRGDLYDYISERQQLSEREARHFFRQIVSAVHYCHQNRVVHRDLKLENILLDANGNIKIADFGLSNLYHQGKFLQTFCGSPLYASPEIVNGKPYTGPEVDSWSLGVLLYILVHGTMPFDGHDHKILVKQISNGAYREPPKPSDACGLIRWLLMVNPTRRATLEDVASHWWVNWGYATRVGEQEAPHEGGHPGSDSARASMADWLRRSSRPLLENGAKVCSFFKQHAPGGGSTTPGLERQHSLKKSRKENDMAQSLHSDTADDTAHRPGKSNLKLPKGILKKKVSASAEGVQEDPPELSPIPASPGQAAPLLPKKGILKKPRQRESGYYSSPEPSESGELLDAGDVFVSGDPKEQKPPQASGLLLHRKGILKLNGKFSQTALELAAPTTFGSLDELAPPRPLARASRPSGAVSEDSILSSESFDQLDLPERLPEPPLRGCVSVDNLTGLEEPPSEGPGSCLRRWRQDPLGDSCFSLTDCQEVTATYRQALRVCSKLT

Chain of LRRK2 (G2019S) (Q5S007 whole entry G2019S): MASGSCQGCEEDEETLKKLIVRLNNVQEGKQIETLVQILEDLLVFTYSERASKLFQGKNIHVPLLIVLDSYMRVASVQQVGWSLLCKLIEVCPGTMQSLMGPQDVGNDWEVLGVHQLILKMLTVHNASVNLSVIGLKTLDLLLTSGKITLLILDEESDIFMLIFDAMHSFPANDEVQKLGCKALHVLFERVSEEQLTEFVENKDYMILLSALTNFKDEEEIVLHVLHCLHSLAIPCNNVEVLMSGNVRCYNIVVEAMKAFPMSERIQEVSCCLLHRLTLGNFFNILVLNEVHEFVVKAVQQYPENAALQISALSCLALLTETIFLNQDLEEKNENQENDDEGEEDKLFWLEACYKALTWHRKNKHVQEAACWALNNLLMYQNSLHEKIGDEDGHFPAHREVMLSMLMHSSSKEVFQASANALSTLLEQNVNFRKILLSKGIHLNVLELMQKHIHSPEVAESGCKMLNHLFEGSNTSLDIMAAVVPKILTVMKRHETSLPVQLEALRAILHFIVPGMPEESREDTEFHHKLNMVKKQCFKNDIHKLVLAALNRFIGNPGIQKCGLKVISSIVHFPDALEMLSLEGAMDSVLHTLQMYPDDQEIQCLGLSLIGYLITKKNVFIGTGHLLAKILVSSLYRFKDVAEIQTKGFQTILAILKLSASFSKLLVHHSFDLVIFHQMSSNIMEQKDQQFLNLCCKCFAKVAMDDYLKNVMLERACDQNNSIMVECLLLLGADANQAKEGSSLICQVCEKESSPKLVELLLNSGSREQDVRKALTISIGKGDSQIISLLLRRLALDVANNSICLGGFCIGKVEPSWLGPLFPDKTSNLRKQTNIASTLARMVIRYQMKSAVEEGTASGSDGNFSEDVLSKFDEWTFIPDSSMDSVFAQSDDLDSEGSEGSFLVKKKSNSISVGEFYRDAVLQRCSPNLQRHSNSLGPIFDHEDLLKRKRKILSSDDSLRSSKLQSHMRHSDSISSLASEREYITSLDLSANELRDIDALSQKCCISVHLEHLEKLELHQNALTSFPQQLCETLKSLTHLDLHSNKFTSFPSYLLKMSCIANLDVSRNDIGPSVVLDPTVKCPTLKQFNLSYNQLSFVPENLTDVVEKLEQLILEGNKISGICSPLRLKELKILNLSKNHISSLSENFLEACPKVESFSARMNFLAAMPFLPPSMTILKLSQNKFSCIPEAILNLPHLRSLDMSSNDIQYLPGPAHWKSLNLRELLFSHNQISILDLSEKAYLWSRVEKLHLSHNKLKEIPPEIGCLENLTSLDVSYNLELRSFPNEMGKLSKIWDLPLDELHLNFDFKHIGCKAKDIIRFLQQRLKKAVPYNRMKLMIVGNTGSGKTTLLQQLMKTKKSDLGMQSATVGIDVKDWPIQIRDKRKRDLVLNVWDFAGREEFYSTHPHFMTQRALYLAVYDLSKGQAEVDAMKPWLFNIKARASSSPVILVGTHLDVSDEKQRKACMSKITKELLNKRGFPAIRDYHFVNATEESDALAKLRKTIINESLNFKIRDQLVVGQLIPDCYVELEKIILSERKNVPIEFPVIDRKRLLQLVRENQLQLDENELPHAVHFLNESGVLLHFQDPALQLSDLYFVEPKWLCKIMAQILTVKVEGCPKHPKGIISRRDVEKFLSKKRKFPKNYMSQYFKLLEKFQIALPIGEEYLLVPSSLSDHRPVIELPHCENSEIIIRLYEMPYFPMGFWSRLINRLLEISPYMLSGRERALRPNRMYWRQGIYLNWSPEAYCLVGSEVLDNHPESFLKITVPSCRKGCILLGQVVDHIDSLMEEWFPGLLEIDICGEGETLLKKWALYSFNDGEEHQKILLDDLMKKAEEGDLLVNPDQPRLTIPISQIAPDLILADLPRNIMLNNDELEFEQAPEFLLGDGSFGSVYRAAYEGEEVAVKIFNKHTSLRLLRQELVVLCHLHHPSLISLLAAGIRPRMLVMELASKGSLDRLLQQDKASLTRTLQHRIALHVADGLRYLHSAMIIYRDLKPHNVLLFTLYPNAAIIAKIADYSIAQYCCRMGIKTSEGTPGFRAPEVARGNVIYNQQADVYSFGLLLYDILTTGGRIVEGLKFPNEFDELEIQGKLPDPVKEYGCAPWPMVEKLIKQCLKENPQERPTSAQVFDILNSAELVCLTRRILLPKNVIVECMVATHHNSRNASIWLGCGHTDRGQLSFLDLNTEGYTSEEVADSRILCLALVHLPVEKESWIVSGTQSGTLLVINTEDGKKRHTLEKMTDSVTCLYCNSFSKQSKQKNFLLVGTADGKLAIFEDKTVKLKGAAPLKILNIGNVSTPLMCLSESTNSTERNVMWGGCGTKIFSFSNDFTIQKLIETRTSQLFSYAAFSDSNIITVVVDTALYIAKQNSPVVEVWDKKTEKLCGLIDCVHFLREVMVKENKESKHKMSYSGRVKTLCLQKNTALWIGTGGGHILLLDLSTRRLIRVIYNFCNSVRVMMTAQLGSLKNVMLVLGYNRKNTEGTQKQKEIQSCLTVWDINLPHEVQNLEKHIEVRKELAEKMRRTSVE

C[C@H](NC(=O)c1c[nH]c2ncc(C3CC3)nc12)C(C)(C)C [A1, UNC-BE4-017]
Compound A1 PoC (LRRK2 (G2019S)): 7.5%
Compound A1 PoC (MAP3K15): 0%
Compound A1 PoC (NUAK2): 1.2%
